In DBAASP:
≈ marks a conversion by molar mass, not a printed value. One block for each compound: values may come before it.

Tests used:
Experiment in all cases: ≥ marks a high value that may be exact or a test limit, other limits are often not marked, values filed in µg/mL are converted to µM
[1] = test system: Pseudomonas aeruginosa NCDC 0105
[2] = test system: Pseudomonas aeruginosa ATCC 27853
[3] = test system: Staphylococcus aureus NCDC 0111
[4] = test system: Staphylococcus aureus ATCC 29213
[5] = test system: Listeria monocytogenes ATCC 19111
[6] = test system: Bacillus cereus NCDC 0240
[7] = test system: Acinetobacter johnsonii NCDC 0072
[8] = test system: Salmonella enterica subsp. enterica serovar Typhimurium ATCC 14028
[9] = test system: Escherichia coli MTCC 0723
[10] = test system: Pseudomonas aeruginosa ATCC BAA-427
[11] = test system: Klebsiella pneumoniae ATCC 27736
[12] = test system: Bacillus subtilis ATCC 6633
[13] = test system: Staphylococcus aureus ATCC 33591
[14] = test system: Escherichia coli ATCC 25922
[15] = test system: Enterococcus faecium ATCC 700221
[16] = test system: Staphylococcus epidermidis KCTC 3096
[17] = test system: Trichosporon beigelii KCTC 7707
[18] = test system: Salmonella typhimurium KCTC 1926
[19] = test system: Pseudomonas aeruginosa KCTC 1637
[20] = test system: Candida albicans TIMM 1768
[21] = test system: Bacillus subtilis KCTC 1918
[22] = test system: Escherichia coli BW25113 ΔwaaG
Escherichia coli BW25113 = test system: Escherichia coli BW25113
[23] = test system: Escherichia coli BW25113 ΔsbmA
[24] = test system: Candida albicans ATCC 2002
Klebsiella pneumoniae = test system: Klebsiella pneumoniae
[25] = test system: Penicillium urticae IFFI 2001
[26] = test system: Aspergillus flavus IFFI 4015
Bacillus megaterium = test system: Bacillus megaterium
[27] = test system: Pseudomonas aeruginosa CMCCB 10104
[28] = test system: Staphylococcus aureus ATCC 2592
Shigella dysenteriae = test system: Shigella dysenteriae
[29] = test system: Pseudomonas aeruginosa AB93066
[30] = test system: Pseudomonas aeruginosa ATCC 9027
[31] = test system: Staphylococcus aureus AB94004
[32] = test system: Staphylococcus aureus ATCC 25923
[33] = test system: Staphylococcus aureus ATCC 6538
Escherichia coli AB94012 = test system: Escherichia coli AB94012
[34] = test system: Staphylococcus aureus P1381
[35] = test system: Staphylococcus aureus P1374

Structure (SMILES): CC[C@H](C)[C@H](NC(=O)[C@H](Cc1c[nH]c2ccccc12)NC(=O)[C@@H](NC(=O)[C@H](Cc1c[nH]c2ccccc12)NC(=O)[C@@H]1CCCN1C(=O)[C@@H](NC(=O)[C@H](C)N)[C@@H](C)CC)[C@@H](C)CC)C(=O)N[C@@H](Cc1c[nH]c2ccccc12)C(=O)N[C@@H](Cc1c[nH]c2ccccc12)C(=O)N[C@@H](CC(C)C)C(=O)N[C@@H](CC(C)C)C(=O)N[C@@H](CCCN=C(N)N)C(=O)N[C@@H](CCCCN)C(=O)NCC(=O)O [AIPWIWIWWLLRKG]
MIC [1]: 6 µM (≈ 11 µg/mL)
MIC [2]: 6 µM (≈ 11 µg/mL)
MIC [3]: 0.4 µM (≈ 0.735 µg/mL)
MIC [4]: 6 µM (≈ 11 µg/mL)
MIC [5]: 6 µM (≈ 11 µg/mL)
MIC [6]: 0.8 µM (≈ 1.47 µg/mL)
MIC [7]: 1.5 µM (≈ 2.76 µg/mL)
MIC [8]: 1.5 µM (≈ 2.76 µg/mL)
MIC [9]: 6 µM (≈ 11 µg/mL)

Structure (SMILES): CC[C@H](C)[C@H](NC(=O)CNC(=O)[C@H](CCCN=C(N)N)NC(=O)[C@H](Cc1ccccc1)NC(=O)[C@@H](NC(=O)[C@H](Cc1cnc[nH]1)NC(=O)[C@H](Cc1cnc[nH]1)NC(=O)[C@H](Cc1ccccc1)NC(=O)[C@@H](N)Cc1ccccc1)[C@@H](C)CC)C(=O)N[C@H](C(=O)N[C@@H](Cc1cnc[nH]1)C(=O)N[C@H](C(=O)NCC(=O)N[C@@H](CCCCN)C(=O)N[C@H](C(=O)N[C@H](C(=O)N[C@@H](Cc1cnc[nH]1)C(=O)N[C@@H](CCCN=C(N)N)C(=O)N[C@@H](CC(C)C)C(=O)N[C@H](C(=O)N[C@H](C(=O)NCC(N)=O)[C@@H](C)O)C(C)C)C(C)C)[C@@H](C)O)C(C)C)C(C)C [FFHHIFRGIVHVGKTVHRLVTG]
MIC [10]: 12 µM (≈ 30.7 µg/mL)
MIC [11]: 6 µM (≈ 15.3 µg/mL)
MIC [12]: 8 µM (≈ 20.5 µg/mL)

Structure (SMILES): CC[C@H](C)[C@H](NC(=O)[C@H](CCCN=C(N)N)NC(=O)[C@@H](N)CCCN=C(N)N)C(=O)N[C@@H](CCCN=C(N)N)C(=O)N1CCC[C@H]1C(=O)N[C@@H](CCCN=C(N)N)C(=O)N1CCC[C@H]1C(=O)N1CCC[C@H]1C(=O)N[C@@H](CCCN=C(N)N)C(=O)N[C@@H](CC(C)C)C(=O)N1CCC[C@H]1C(=O)N[C@@H](CCCN=C(N)N)C(=O)N1CCC[C@H]1C(=O)N[C@@H](CCCN=C(N)N)C(=O)N1CCC[C@H]1C(=O)N[C@@H](CCCN=C(N)N)C(=O)N1CCC[C@H]1C(=O)N[C@@H](CC(C)C)C(=O)N1CCC[C@H]1C(=O)N[C@@H](Cc1ccc(O)cc1)C(=O)N1CCC[C@H]1C(=O)N[C@@H](CCCN=C(N)N)C(=O)N1CCC[C@H]1C(=O)O [RRIRPRPPRLPRPRPRPLPYPRP]
MIC [22]: 0.5 µM (≈ 1.45 µg/mL)
MIC (Escherichia coli BW25113): 1 µM (≈ 2.9 µg/mL)
MIC [14]: 1 µM (≈ 2.9 µg/mL)
MIC [23]: 8 µM (≈ 23.2 µg/mL)

Structure (SMILES): CC[C@H](C)[C@H](NC(=O)[C@H](CCCCN)NC(=O)[C@H](C)NC(=O)CNC(=O)[C@@H](NC(=O)[C@@H](N)CO)[C@@H](C)CC)C(=O)N[C@@H](CC(C)C)C(=O)NCC(=O)NCC(=O)N[C@H](C(=O)N[C@@H](CCCCN)C(=O)N[C@H](C(=O)N[C@@H](Cc1ccccc1)C(=O)N[C@@H](Cc1ccccc1)C(=O)N[C@@H](CCCCN)C(=O)NCC(=O)N[C@@H](C)C(=O)N[C@@H](CC(C)C)C(=O)N[C@@H](CCCCN)C(=O)N[C@@H](CCC(=O)O)C(=O)N[C@@H](CC(C)C)C(=O)N[C@@H](C)C(=O)N[C@@H](CO)C(=O)N[C@H](C(=O)N[C@@H](Cc1ccc(O)cc1)C(=O)N[C@@H](CC(C)C)C(=O)N[C@@H](CCC(N)=O)C(=O)O)[C@@H](C)O)[C@@H](C)O)C(C)C [SIGAKILGGVKTFFKGALKELASTYLQ]
MIC [24]: 0.422 µM (≈ 1.2 µg/mL)
MIC (Klebsiella pneumoniae): 1.27 µM (≈ 3.6 µg/mL)
MIC [25]: 4.22 µM (≈ 12 µg/mL)
MIC [26]: 4.22 µM (≈ 12 µg/mL)
MIC (Bacillus megaterium): 4.22 µM (≈ 12 µg/mL)
MIC [27]: 2.53 µM (≈ 7.2 µg/mL)
MIC [28]: 1.27 µM (≈ 3.6 µg/mL)
MIC (Shigella dysenteriae): 4.22 µM (≈ 12 µg/mL)

The remaining lines, values ahead:

MIC [13]: 3.1 µM (≈ 5.4 µg/mL)
MIC [2]: 12.5 µM (≈ 21.8 µg/mL)
MIC [14]: 6.3 µM (≈ 11 µg/mL)
MIC [15]: 1.6 µM (≈ 2.79 µg/mL)
Structure (SMILES): CC[C@H](C)[C@H](NC(=O)[C@H](CCCCN)NC(=O)[C@H](CCCCN)NC(=O)[C@H](CC(C)C)NC(=O)[C@H](CC(C)C)NC(=O)[C@H](CCCCN)NC(=O)[C@H](CCCCN)NC(=O)[C@@H](NC(=O)[C@@H](NC(=O)[C@H](CC(=O)O)NC(=O)[C@H](Cc1ccccc1)NC(=O)[C@H](CC(C)C)NC(=O)CN)C(C)C)[C@@H](C)CC)C(=O)NCC(=O)NCC(=O)N[C@@H](CC(C)C)C(N)=O [GLFDVIKKLLKKIGGL]

MIC [16]: 12.5 µM (≈ 19.8 µg/mL)
MIC [17]: 25 µM (≈ 39.7 µg/mL)
MIC [18]: 2.21 µM (≈ 3.5 µg/mL)
MIC [19]: 3.12 µM (≈ 4.95 µg/mL)
MIC [20]: 25 µM (≈ 39.7 µg/mL)
MIC [21]: 6.25 µM (≈ 9.91 µg/mL)
Structure (SMILES): CC(C)C[C@H](NC(=O)[C@H](Cc1ccccc1)NC(=O)[C@H](CCCCN)NC(=O)[C@@H]1CCCN1C(=O)[C@H](CCCCN)NC(=O)[C@H](CCCCN)NC(=O)[C@H](CCCCN)NC(=O)[C@H](CCCCN)NC(=O)[C@H](CCCCN)NC(=O)[C@H](CCCCN)NC(=O)[C@H](Cc1c[nH]c2ccccc12)NC(=O)[C@@H](N)CCCCN)C(N)=O [KWKKKKKKPKFL]

MIC [29]: 31.7 µM (≈ 50 µg/mL)
MIC [30]: 15.9 µM (≈ 25 µg/mL)
MIC [31]: 3.97 µM (≈ 6.25 µg/mL)
MIC [32]: 3.97 µM (≈ 6.25 µg/mL)
MIC [33]: 3.97 µM (≈ 6.25 µg/mL)
MIC (Escherichia coli AB94012): 15.9 µM (≈ 25 µg/mL)
MIC [14]: 31.7 µM (≈ 50 µg/mL)
MIC [34]: 7.93 µM (≈ 12.5 µg/mL)
MIC [35]: 3.97 µM (≈ 6.25 µg/mL)
Structure (SMILES): CC[C@H](C)[C@H](NC(=O)[C@H](CO)NC(=O)[C@H](CCCCN)NC(=O)[C@@H](NC(=O)CNC(=O)[C@H](CCCCN)NC(=O)[C@H](Cc1c[nH]c2ccccc12)NC(=O)[C@H](CC(C)C)NC(=O)[C@H](CCCCN)NC(=O)CNC(=O)[C@H](CC(C)C)NC(=O)[C@@H](NC(=O)[C@@H](N)CO)[C@@H](C)CC)C(C)C)C(=O)N[C@@H](Cc1ccccc1)C(N)=O [SILGKLWKGVKSIF]
